Consider one substance from patent US20040138272A1, “1,4-Substituted cyclohexane derivatives” (priority 2002, published 2004).

Entries after “also recorded” stand apart in the source; their conditions may differ.

The subject of assay [1] is retinal ganglion cell axons. The experiment in a line: Axon regeneration after optic nerve crush, intravitreal injection. The class given is in vivo, rat. The settings on record: adult rats, two weeks after crush. Here is the method: To examine the ability of BA-1016 to promote axon regeneration in vivo, the regeneration of retinal ganglion cell axons was examined in the optic nerve after intravitrial injection of BA-1016. In these experiments, BA-1016 was injected at in the vitreous of rats immediately after optic nerve crush that transects all of the retinal ganglion cell (RGC) axons (Lehmann et al, IBID). Two weeks later the animals cholera toxin B subunit was injected in the eye to anterogradelty label the regenerating RGC axons. The next day the animals were killed perfused with saline, and the optic nerves removed for sectioning. Longitudinal sections of the optic nerve were reacted for anti-cholera toxin immunoreactivity to observe the anterogradely labeled fibers.
Rats were anesthetized with isoflorane (2.4%) and the head shaved. […] Retinal ganglion cell axons were labeled by CTB were detected by immunohistochemistry for CTB using a goat anti-choleragenoid (List Biological Labs.), a biotinylated rabbit anti-goat (Vector Labs., Burlingame, Calif.) and DTAF-conjugated streptavidin (Jackson Labs., West Grove, Pa.) as described previously (Lehmann et al IBID)

For assay [2], the system named is retinal ganglion cells (RGC). Briefly: Retinal ganglion cell survival 7 days after optic nerve axotomy, intravitreal injection. The settings on record: for % Survival / Average RGC counts: 7 days after axotomy. The class given is in vivo, rat. An excerpt:
The retinal ganglion cell (RGC) response to injury and ischemia has been well documented (Berkelaar et al., 1994; Selles-Navarro et al., 1996; Vidal-Sanz et al., 1988; Villegas-Perez et al., 1998; Villegas-Perez et al., 1993). Transection of the optic nerve (ON) in the adult rat, as a model of fiber tract lesion in the adult mammalian CNS, results in delayed, mainly apoptotic death of 80-90% of retinal ganglion cells (RGCs) within 14 days post-lesion. Because of good surgical accessibility of the retina and the optic nerve, the retino-tectal projection represents not only a convenient model to study the molecular mechanisms underlying neuronal death but also serves as a suitable system for investigating potential neuroprotective agents in vivo.
After optic nerve transection, many of the retinal ganglion cells (RGC) in the eye die by apoptosis. The ability of BA-1016 to support RGC cell survival after optic nerve injury was tested. A single injection of BA-1016 was made in the eye, and one week later cell survival was assessed. Three animals were examined for each treatment group. Cell survival was improved one week after BA-1016. Neurotrophic factors that are known to rescue RGCs also give improved cell surival one week after axotomy, but multiple or chronic application is needed to increase the number of surviving cells.
Experiments were performed on adult female CD rats (180-200 g; Charles River, Canada). Animals were cared for according to the Canadian Council on Animal Care. Rats were under general anaesthesia with isofluorane connected to Moduflex Access anaesthesia machine during experimental procedures. Ophthalmic eye ointment (Polysporin) was applied to prevent corneal desiccation. […] All rats were pre-labelled with Fluorogold one week prior to optic nerve lesion.
One week after Fluorogold application, the left optic nerve was transected 1 mm from the eye. […] There are blood vessels on pia and optic nerve. The pia mater sheath was lifted and a lateral incision exposed the optic nerve. It was important not to cut the optic nerve before cutting the pia. When pia was cut, the optic nerve was moved gently to dislodge it from its sheath so that the scissors could be slipped under it to cut it. It was important to not pull the nerve at this point to avoid compromising the blood supply. When the optic nerve was well exposed, small scissors were slid tangentially under optic nerve, making sure to see their end on other side of the nerve, then cutting with one clean cut at 1 mm from the eye. Scissor blades were used as a reference for the 1 mm distance.
In the group of animals assigned to receive intravitreal injection after axotomy, the compounds of interest were injected into the vitreous space. […] The needle was removed after one minute. […]
A binocular microscope was used to view the eye during injection. The skin was closed with staples (auto clips) and the integrity of the retinal vasculature was evaluated by a postoperative ophthalmoscopy using a water-covered microscope slide. […] Finally the animals were returned to the cage and closely monitored until awakened
Seven days after axotomy, animals were killed by injecting an overdose of Chloral hydrate intraperitoneally and then they were fixed by perfusion with 4% paraformaldehyde (PFA), 0.1 M phosphate buffer; the eyes were remove carefully transecting the ocular muscles with scissors and forceps. […] RGCs are examined under the fluorescence microscope with an UV filter (365/420). […]

As for “(R)-trans-4-(But-3′-en-1′-amino)-N-(4″-pyridyl)cyclohexane Carboxamide Dihydrochloride [BA-1016]”, the “distances of axon growth” value in assay [1] is listed as “exceeded 500 um”. For the same substance, in assay [1] (Dihydrochloride), the “axon regeneration after optic nerve injury (FIG. 5)” value was “can promote axon regeneration; also recorded: RGC axons were observed”. In assay [2] (Axotomy + 0.1 mM), the “% Survival” value is reported as 59% and the “Average RGC counts” value is listed as 1352. In assay [2] (Axotomy + 1 mM), the “% Survival” value is 60% and the “Average RGC counts” value is reported as 1378. Moreover, the “RGC cell survival after optic nerve injury” value in assay [2] (single injection in the eye, one week) is listed as “improved”.
